Test results from US7101878B1 (Agouron Pharmaceuticals, Inc., priority 1998, dated 2006).
Like-named read-outs stand apart in the source and are kept apart here. Where a SMILES comes first, the peptide text is derived from it. [ ]: non-standard residue; d: D form. The star is where a group is joined. dPhe(4-Cl) = N[C@H](Cc1ccc(Cl)cc1)C(=O)O; d2Nal = N[C@H](Cc1ccc2ccccc2c1)C(=O)O; Lys(iPr) = CC(C)NCCCC[C@H](N)C(=O)O; d3Pal = N[C@H](Cc1cccnc1)C(=O)O; Nicotinoyl = O=C(c1cccnc1)*

Tests used:
human GnRH receptor = target: T1, human GnRH receptor (Homo sapiens, UniProt P30968); experiment: Radioligand binding, 125I-GnRH-A displacement, membranes of HEK 293 cells with human GnRH receptor
T1 construct: expressed in transfected cells; host or cells: HEK 293 (hGnRH-R/293, from Dr. Stuart Sealfon)
T1 sequence (P30968 1-328): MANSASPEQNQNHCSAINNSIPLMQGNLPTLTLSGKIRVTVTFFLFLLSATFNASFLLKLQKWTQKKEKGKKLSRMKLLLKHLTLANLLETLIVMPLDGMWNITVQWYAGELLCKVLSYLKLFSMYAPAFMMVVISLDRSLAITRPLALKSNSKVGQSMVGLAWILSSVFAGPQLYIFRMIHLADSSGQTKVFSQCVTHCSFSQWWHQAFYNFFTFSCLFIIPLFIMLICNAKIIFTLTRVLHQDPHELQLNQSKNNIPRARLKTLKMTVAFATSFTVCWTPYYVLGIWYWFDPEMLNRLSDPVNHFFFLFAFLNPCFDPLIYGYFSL
Procedure, shortened: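 Bound tracer was separated by filtration through polyethyleneimine-soaked GF/C filters and counted by liquid scintillation. IC50 from curve fitting; other species were tested under the same conditions.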

[1] = Metabolism rate, pmol/min/mg at 1 μM, rat male; format: in vitro ADME; settings: 1 μM compound
[2] = Metabolism rate, pmol/min/mg at 1 μM, human; format: in vitro ADME; settings: 1 μM compound
rat GnRH receptor = target: T2, rat GnRH receptor (Rattus norvegicus, UniProt P30969); experiment: Radioligand binding, 125I-GnRH-A, rat pituitary membranes; parameters: membranes were prepared from rat pituitary; from tissue; host or cells: rat pituitary
T2 sequence (P30969 1-327): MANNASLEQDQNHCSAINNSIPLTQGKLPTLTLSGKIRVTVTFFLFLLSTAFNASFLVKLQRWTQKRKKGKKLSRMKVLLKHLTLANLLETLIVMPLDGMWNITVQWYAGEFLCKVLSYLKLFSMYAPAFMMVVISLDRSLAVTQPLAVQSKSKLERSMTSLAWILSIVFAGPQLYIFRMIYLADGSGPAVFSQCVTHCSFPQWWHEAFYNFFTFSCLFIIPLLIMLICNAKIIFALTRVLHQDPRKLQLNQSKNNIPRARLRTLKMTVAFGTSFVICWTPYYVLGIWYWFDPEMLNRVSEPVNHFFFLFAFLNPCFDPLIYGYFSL
Procedure, shortened: (§1)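 Bound label captured on 0.1% polyethyleneimine-treated GF/C filters, washed three times with PBS, counted. IC50 derived; identical set-up for every species.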

[3] = Pharmacokinetic studies / bioavailability in rats; format: in vivo, rat; settings: for Cmax / Tmax: po
mouse GnRH receptor = target: T3, mouse GnRH receptor (Mus musculus, UniProt Q01776); experiment: Radioligand binding, 125I-GnRH-A, 293 cells expressing mouse GnRH receptors
T3 construct: expressed in transfected cells; host or cells: 293 cells
T3 sequence (Q01776 1-327): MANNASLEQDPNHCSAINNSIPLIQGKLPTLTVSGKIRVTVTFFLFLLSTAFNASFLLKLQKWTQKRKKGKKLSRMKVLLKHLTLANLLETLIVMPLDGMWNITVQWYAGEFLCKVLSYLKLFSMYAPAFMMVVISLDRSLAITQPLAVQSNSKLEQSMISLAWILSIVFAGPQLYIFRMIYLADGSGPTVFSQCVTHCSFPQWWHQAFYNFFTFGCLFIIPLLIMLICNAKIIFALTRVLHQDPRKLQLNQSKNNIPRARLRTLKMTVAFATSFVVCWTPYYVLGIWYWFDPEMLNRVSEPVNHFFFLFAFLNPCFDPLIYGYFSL
Procedure, shortened: as §1

NPY Y1 = target: T4, NPY Y1 (Homo sapiens, UniProt P25929); experiment: Selectivity: NPY Y1
T4 sequence (P25929 1-384): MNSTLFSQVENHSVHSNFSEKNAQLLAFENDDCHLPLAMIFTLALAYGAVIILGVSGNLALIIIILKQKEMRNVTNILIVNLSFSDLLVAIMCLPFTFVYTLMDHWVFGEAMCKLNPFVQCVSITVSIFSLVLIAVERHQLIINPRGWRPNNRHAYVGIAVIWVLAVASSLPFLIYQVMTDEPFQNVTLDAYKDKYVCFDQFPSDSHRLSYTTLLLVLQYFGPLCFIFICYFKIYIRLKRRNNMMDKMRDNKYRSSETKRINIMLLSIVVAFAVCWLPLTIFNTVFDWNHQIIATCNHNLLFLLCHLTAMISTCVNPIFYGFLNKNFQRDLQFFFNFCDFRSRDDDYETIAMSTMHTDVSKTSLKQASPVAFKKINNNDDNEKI

[4] = female, rat, plasma, 10 mg/kg, rat female, p.o. 10 mg/kg, 5 mg/ml solution in 10% DMSO 10% cremophor 80% saline
[5] = female, rat, plasma, rat female
[6] = rat female, 5 mg/ml solution in 10% DMSO 10% cremophor 80% saline
[7] = male, rat, plasma, iv, 10 mg/kg, rat male
[8] = male, rat, plasma, 20 mg/kg, rat male, p.o. 20 mg/kg, vehicle per footnote (DMSO/cremophor/saline)
[9] = plasma, ip, rat, i.p. 20 mg/kg, read-out: Bioavailability after i.p. dosing
[10] = rat male, p.o. 20 mg/kg, vehicle per footnote (DMSO/cremophor/saline)
[11] = female, rat, plasma, 20 mg/kg, rat female, p.o. 20 mg/kg, 10 mg/ml solution in 10% DMSO 10% cremophor 80% saline
[12] = male, rat, plasma, 20 mg/kg, rat male, p.o. 20 mg/kg, 40 mg/ml in PEG400
[13] = rat female, p.o. 20 mg/kg, 10 mg/ml solution in 10% DMSO 10% cremophor 80% saline
[14] = male, rat, plasma, 10 mg/kg, rat male, p.o. 10 mg/kg, vehicle per footnote
[15] = means ± SE of at least three experiments performed in duplicate, read-out: Human IC50
[16] = second value marked * (mostly in parentheses), asterisk not explained, read-out: hGnRH IC50, value marked *
[17] = means ± SE of at least three experiments performed in duplicate, read-out: Rat IC50
[18] = means ± SE of at least three experiments performed in duplicate, read-out: Mouse IC50
[19] = male, rat, plasma, 20 mg/kg, castrated male rats, p.o. 20 mg/kg, 10 mg/ml solution in 10% DMSO 10% cremophor 80% saline

Compound | IC50 (human GnRH receptor; read-out: hGnRH IC50) [nM] | Rat male pmol/min/mg 1 μM [1] [pmol/min/mg] | Human pmol/min/mg 1 μM [2] [pmol/min/mg] | IC50 (rat GnRH receptor; read-out: rGnRH IC50) [nM] | half-life [3, 5] [h] | IC50 (mouse GnRH receptor; read-out: mGnRH IC50) [nM] | half-life [3, 7] [h] | Cmax [3, 8] [nM] | Tmax [3, 8] [h] | Fp.o. [3, 10] | IC50 (human GnRH receptor; [15]) [nM] | IC50 (NPY Y1) [nM] | IC50 (human GnRH receptor; [16]) [nM] | IC50 (rat GnRH receptor; [17]) [nM] | IC50 (mouse GnRH receptor; [18]) [nM] | also measured
COc1cc(OC)c(NC(=O)c2ccc(Cc3cc(C(C)(C)C)ccc3C)o2)c(OC)c1 [Compound 200] | 42 | 595 | 346 | 2.8 | 2 | 13 |  |  |  |  |  |  |  |  |  | Cmax [3, 4]: 960 nM; Tmax [3, 4]: 1.5 h; Fp.o. [3, 6]: 33% (10 mg/kg)^10
Cc1cc2c(cc1Cc1ccc(C(=O)NCc3cccc(CNc4nccc(NCC5CCCO5)n4)c3)o1)C(C)(C)CCC2(C)C (stereo not shown) [Compound 70] | 50 | 2393 | 311 | 6 |  | 6 | 0.967 |  |  |  |  |  |  |  |  | 
COc1cc(OC)c(NC(=O)c2ccc(Cc3cc4c(cc3OC)C(C)(C)CCC4(C)C)o2)c(OC)c1 [Compound 169] | 12 | 3320 | 589 | 7 |  | 5 | 1.5 | 970 | 1 | 27% (20 mg/kg)^1 |  |  |  |  |  | bioavailability [3, 9]: 70%
Cc1cc2c(cc1Cc1ccc(C(=O)NCc3cccc(CNc4ccnc(NC[C@@H]5CCCO5)n4)c3)o1)C(C)(C)CCC2(C)C [Compound 136] |  | 4437 | 191 | 4.7 | 3.2 | 8.6 | 2 | 240 | 2 | 6% (20 mg/kg)^4 |  |  |  |  |  | Cmax [3, 11]: 240 nM; Tmax [3, 11]: 2.5 h; Tmax [3, 12]: 4 h; Tmax ([3]; male, rat, plasma, 20 mg/kg, rat male, p.o. 20 mg/kg, in PG): 3.5 h; bioavailability ([3]; plasma, other: portal vein infusion, rat, portal vein infusion 20 mg/kg, read-out: Portal vein infusion: bioavailable): 36%; Fp.o. [3, 13]: 8% (20 mg/kg)^1
COc1cc(OC)c(NC(=O)c2ccc(Cc3cc4c(cc3C)CCCC4(C)C)o2)c(OC)c1 [Compound 183] | 6.8 | 1246 | 238 | 2.5 | 3.6 | 2.7 | 4.1 |  |  |  |  |  |  |  |  | Cmax [3, 4]: 510 nM; Tmax [3, 4]: 1 h; Cmax [3, 14]: 350 nM; Tmax [3, 14]: 1 h; Fp.o. [3, 6]: 37% (10 mg/kg)^10; Fp.o. ([3]; rat male, vehicle per footnote): 29% (10 mg/kg)^10
COc1cccc(OC)c1NC(=O)c1ccc(Cc2cc3c(cc2C)C(C)(C)CCC3(C)C)o1 [Compound 20] | 8 |  |  | 5 |  | 20 | 0.867 | 200 | 1 |  | 8 ± 0.9 | > 10000 |  |  |  | Ki (NPY Y1): > 10000 nM
Cc1cc2c(cc1Cc1ccc(C(=O)NC[C@H]3CC[C@H](CNC(=N)N)CC3)o1)C(C)(C)CCC2(C)C [Compound 10] | 130 |  |  | 390 |  | 1400 |  |  |  |  | 130 ± 24 | 9700 | 20 | 390 ± 10 | 1400 ± 440 | 
Cc1cc2c(cc1Cc1ccc(C(=O)NC[C@H]3CC[C@H](C(=O)O)CC3)o1)C(C)(C)CCC2(C)C [Compound 12] | 230 |  |  | 3080 |  | 7130 | 0.6 |  |  |  | 230 ± 37 | > 10000 | 210 | 3080 ± 630 | 7130 ± 1350 | 
Cc1cc2c(cc1Cc1ccc(C(=O)NCC3CCCC(CNc4nccc(NCC5CCCO5)n4)C3)o1)C(C)(C)CCC2(C)C (stereo not shown) [Compound 11] | 190 |  |  | 9 |  | 50 | 3 |  |  |  | 190 ± 40 | 2550 | 80 | 9 ± 0.3 | 50 ± 10 | Cmax [3, 14]: 150 nM; Tmax [3, 14]: 1.5 to 3.5 h; concentration at 4 h ([3]; rat, plasma, iv, four hours after i.v. injection, 10 mg/kg): 100 to 200 nM
Cc1cnc(CNC(=O)c2ccc(Cc3cc4c(cc3C)C(C)(C)CCC4(C)C)o2)cn1 [Compound 13] | 110 |  |  | 60 |  | 120 | 1.5 |  |  |  | 110 ± 20 | > 10000 | 40 | 60 ± 8 | 120 ± 20 | 
COc1cc(OC)c(NC(=O)c2ccc(Cc3cc4c(cc3C)C(C)(C)CCC4(C)C)o2)c(OC)c1C#N [Compound 177] | 7.4 | 2930 | 876 | 5.7 |  | 7.3 | 2.2 |  |  | 0 (20 mg/kg)^9% |  |  |  |  |  | bioavailability [3, 9]: 8%
CC(=O)N[C@H](Cc1ccc2ccccc2c1)C(=O)N[C@H](Cc1ccc(Cl)cc1)C(=O)N[C@H](Cc1cccnc1)C(=O)N[C@@H](CO)C(=O)N[C@@H](CCCCNC(=O)c1cccnc1)C(=O)N[C@H](CCCCNC(=O)c1cccnc1)C(=O)N[C@@H](CC(C)C)C(=O)N[C@@H](CCCCNC(C)C)C(=O)N1CCC[C@H]1C(=O)N[C@H](C)C(N)=O [Antide, reference compound] (Ac-[d2Nal][dPhe(4-Cl)][d3Pal]SK(Nicotinoyl)[dK](Nicotinoyl)L[Lys(iPr)]P[dA]-NH2) |  |  |  |  |  |  |  |  |  |  | 0.67 ± 0.09 |  |  | 0.19 ± 0.04 | 0.25 ± 0.05 | 
COc1cc(OC)c(NC(=O)c2ccc(Cc3cc4c(cc3C)C(C)(C)CCC4(C)C)o2)c(OC)c1 [Compound 134] | 6 | 3909 | 630 | 3 | 1.7 | 3 | 1.4 | 610 | 1 | 8% (20 mg/kg)^5 |  |  |  |  |  | Fp.o. ([3]; castrated male rats, p.o. 20 mg/kg, 10 mg/ml solution in 10% DMSO 10% cremophor 80% saline): 23% (20 mg/kg)^1; Cmax [3, 11]: 2310 nM; Tmax [3, 11]: 1 h; half-life ([3]; male, rat, plasma, castrated male rats): 1.7 h; Cmax [3, 19]: 1980 nM; Tmax [3, 19]: 1.5 h; Cmax [3, 12]: 230 nM; bioavailability [3, 9]: 38%; Fp.o. [3, 13]: 24% (20 mg/kg)^1
